Measurements taken from patent US12059429B2, “Hornerin: a novel non-VEGF mediated angiogenic protein expressed in both human and mouse angiogenic endothelial cells and human pancreatic cancer cells” (University of Virginia Patent Foundation, priority 2018, dated 2024).

What was measured:
[1] = system: L3.6pl xenografts; assay: Flow cytometry/FACS of tumor cell populations; type: in vivo, mouse
Method: Day 10 tumors were injected with either Scr siRNA or Hrnr siRNA and excised 20 hours later. The tumors were immediately washed in PBS (+Mg/+Ca), minced with scalpels, treated with Collagenase Type II (Worthington Biochemical Corporation, Lakewood, NJ, USA; (2.0 mg/mL) serum-free DMEM, 100 minutes at 37° C.), and filtered through a 40 μm cell strainer. The cell suspension (filtrate) was incubated with the following antibody/dye panel for FACS; anti-CD45 AF488 (1:100; Biolegend, San Diego, CA, USA, 103121, clone 30-F11), anti-CD31 AF647 (1:100; Biolegend, 102415, clone 390), LIVE/DEAD violet stain (1:200; Thermo Fisher). Flow cytometry analysis was completed on the Cyan ADP LX (Beckman Coulter). Compensation and data analysis was completed using FlowJo software (Ashland, OR, USA). FACS was completed in the UVA flow cytometry core on the Influx cell sorter (BD Biosciences, Franklin Lakes, NJ, USA).

[2] = system: L3.6pl PDAC cells; assay: Subcutaneous L3.6pl PDAC xenograft tumor volume; type: in vivo, mouse
Method: A tumor sample size of four was determined by power analysis based on prior tumor xenograft studies. For our 80% power analysis, the difference between means was 200 mm^3, standard deviation was 100 mm^3, and P-value<0.05 (P<0.05). Tumors were measured at least twice weekly until their volume was >1000 mm^3, at which point animals were euthanized. Tumor size data were collected from each tumor, with the exception of one tumor in the combination treatment experiment that was identified with 90% confidence via Grubb's Outlier Test. The following number of mice in each treatment cohort was evaluated for tumor outgrowth: (Scr siRNA/ctrl., N=15; Hrnr siRNA/ctrl., N=14; Scr siRNA/AV-951, N=8; Hrnr siRNA/AV-951, N=8).
For tumor implantation, L3.6pl cells were grown under normal culture conditions for 72 hours prior to being trypsinized and enumerated. The cells were suspended in aliquots of 500,000 cells/50 μL Hanks Balanced Salt Solution (HBSS; Corning, Manassas, VA, USA) and 50 μL of Matrigel (BD Biosciences, San Jose, CA, USA) was added to each aliquot of cells prior to implantation. The cell-Matrigel slurry was injected subcutaneously into nu/nu mice on the flanks or orthotopically into the pancreas (Seaman et al., 2011). The injection site for subcutaneous tumors was monitored daily for growth and tumor volume was calculated form caliper measurements using the formula (width^2×length)/2.
The VEGFR inhibitor AV-951 (Selleck Chemicals, Houston, TX, USA) was suspended in 0.5% methocel+0.5% Tween-20 in HBSS to increase viscosity and 50 μL of 1.0 mg/kg AV-951 or VC solution was administered once daily by oral gavage (22-gauge gavage needle (Kent Scientific, Torrington, CT, USA) connected to a 1 mL syringe). […] To prepare Hrnr siRNA and Silencer Select Negative Control #1 Scr siRNA (Invitrogen; catalog number 4390844) for injection, 10 μg of hornerin or control siRNA were combined with in vivo-jetPEI transfection reagent (Polyplus, France) in solution with 5% glucose per Polyplus instructions (total volume 50 μL). After a 30 minutes incubation, the siRNA solutions were injected slowly into the center of the tumor. A second independent hornerin knockdown experiment was conducted using a pooled set of three unique mouse Hrnr siRNA duplexes (5′-[…]-3′ (SEQ ID NO: 50); 5 ‘-[…]-3’ (SEQ ID NO: 51); 5 ‘-[…]-3’ (SEQ ID NO: 52)) and Scr siRNA (Origene, Rockville, MD, USA). The reagent preparation and injection protocol were similar to that described above.

## 5′-GCAUGGAUCUUGUUGCGGUTT-3′ [Hrnr siRNA]
[1]; FACS of tumor cell suspensions
  proportion of leukocytes (CD45+/CD31- cells): not altered
[1]; FACS, vs Scr siRNA
  proportion of endothelial cells (CD31+/CD45-): not different
[2]; intratumoral injection every other day from day 7, volume at day 13 post implantation
  tumors smaller compared to Scr siRNA-injected tumors: 2.5 fold
[2]; monotherapy or combined therapies
  reduction in tumor volume (discussion summary): two-fold
